These are literature values, as cited in patent US20020198176A1, “Treatment of psoriasis with matrix metalloproteinase inhibitors” (priority 2000, published 2002).

Molecules are shown by their SMILES.

The test system of this data set is MMP. Conditions: in vitro; read-out: IC50 (50% reduction of the MMP enzymatic activity in vitro).

As usually defined, the IC50 is the midpoint of a concentration-inhibition curve. Regarding `O=C(C[C@H](CSc1ccccc1)C(=O)O)c1ccc(-c2ccc(Cl)cc2)cc1` [BAY 12-9566], the IC50 is 2.2 to 60 µM.
